In patent US5407940A, “New ellipticine compounds” (priority 1992, dated 1995):

Key:
[1] = test system: L1210; experiment: Cytotoxicity, line L1210 (Microculture Tetrazolium Assay); type: cell-based, murine; details: for IC50: Mus musculus, L1210, 48 h, 2 days incubation, read-out: Cytotoxicity IC50, line L1210; for times more cytotoxic than adriamycin / times more cytotoxic than elliptinium acetate: L1210
Source text: (§1) The cells are distributed on microplates and exposed to the cytotoxic compounds.

[2] = test system: P388/VCR-20; experiment: cells; details: Mus musculus, P388, 48 h, read-out: Cytotoxicity IC50, resistant P388/VCR-20
[3] = test system: S1/tMDR; experiment: cells; details: Homo sapiens, 96 h, read-out: Cytotoxicity IC50, resistant S1/tMDR
[4] = test system: KB-A1; experiment: cells; details: Homo sapiens, KB-A1, 96 h, read-out: Cytotoxicity IC50, resistant KB-A1
[5] = test system: P388; experiment: Cytotoxicity, sensitive line P388 (Microculture Tetrazolium Assay); type: cell-based, murine; details: Mus musculus, P388, 48 h; 2 days incubation; read-out: Cytotoxicity IC50, sensitive P388
Source text: as §1

[6] = test system: S1; experiment: Cytotoxicity, sensitive line S1; type: cell-based; details: Homo sapiens, 96 h; 4 days incubation; read-out: Cytotoxicity IC50, sensitive S1
Source text: as §1

[7] = test system: KB-3-1; experiment: Cytotoxicity, sensitive line KB-3-1; type: cell-based; details: Homo sapiens, KB 3-1, 96 h; 4 days incubation; read-out: Cytotoxicity IC50, sensitive KB-3-1
Source text: as §1

[8] = test system: S1/tMDR; details: for resistance factor: S1/tMDR vs S1; for sensitivity of resistant line S1/tMDR relative to corresponding sensitive line: vs S1
[9] = test system: colon 38; experiment: Anti-tumour activity against colon 38; type: in vivo, female B6D2F1 mice; details: for median T/C (tumour volume): d2 and d9, d25
Experimental: Colon 38 (supplied by NCI, Frederick, USA) was inserted in the form of fragments by the subcutaneous route into female B6D2F1 mice. The compounds were administered by the i.v. route on d2 and d9 and the anti-tumour activity was determined on […] by measuring the tumour volume (T/C volume, %).

[10] = test system: P388/VCR-20; details: for resistance factor: P388/VCR-20 vs P388; for sensitivity of resistant line P388/VCR-20 relative to corresponding sensitive line: vs P388
[11] = test system: KB-A1; details: KB-A1 vs KB-3-1
[12] = test system: leukaemia P388; experiment: Anti-tumour activity against leukaemia P388 in vivo; details: for Survivors on d60/total no. of mice / T/C: intraperitoneal, day 1
[13] = test system: Lewis pulmonary carcinoma; experiment: Anti-tumour activity against Lewis pulmonary carcinoma; type: in vivo, female B6D2F1 mice; details: for Survivors on d90 / median T/C (survival) / median T/C (volume) d20: i.v., d3, d6, d9
[14] = test system: M5076 sarcoma; experiment: Anti-tumour activity against M5076 sarcoma; type: in vivo, female B6D2F1 mice; details: for Survivors on d90 / median T/C (survival): i.p., d1, d5, d9, d13
Experimental: M5076 sarcoma is supplied by NCI (Frederick, USA). The tumour cells (10^7 cells/animal) were inoculated on d0 into the peritoneal cavity of female B6D2F1 mice. The compounds were administered by the i.p. route on d1, d5, d9 and d13 at the doses indicated. The surviving animals on d90 were recorded and the T/C survival (%) was calculated.

Cc1c2ccnc(C(=O)NCCN3CCCC3)c2cc2c3cc(O)ccc3n(C)c12 [Example 13, 1-[N-(2-Pyrrolidin-1-ylethyl)aminocarbonyl]-5,6-dimethyl-9-hydroxy-6H-pyrido[4,3-b]carbazole]
IC50 [1]: 13.1 nM

Cc1c2ccnc(C(=O)NCCCN(C)C)c2cc2c3cc(O)ccc3n(C)c12 [Example 2, 1-(N,N-Dimethylaminopropylaminocarbonyl)-5,6-dimethyl-9-hydroxy-6H-pyrido[4,3-b]carbazole]
IC50 [2]: 38 nM
times more cytotoxic than adriamycin [1]: approximately 9 times
times more cytotoxic than elliptinium acetate [1]: ~46 times
IC50 [1]: 4.3 nM
IC50 [3]: 38 nM
IC50 [4]: 1220 nM
IC50 [5]: 11 nM
IC50 [6]: 57 nM
IC50 [7]: 19 nM
resistance factor [8]: 0,7
T/C ([9]; 20 mg/kg and above, i.v.): 0%
activity against that solid tumour (in words) ([9]; 20 mg/kg and above, i.v.): very active
median T/C (tumour volume) ([9]; 20 mg/kg, i.v.): 0%
median T/C (tumour volume) ([9]; 40 mg/kg, i.v.): 0%
median T/C (tumour volume) ([9]; 60 mg/kg, i.v.): 0%
activity relative to 5-fluorouracyle ([9]; 5-Fu at 80 mg/kg): as active as
resistance factor [10]: 3,4
resistance factor [11]: 64
Survivors on d60/total no. of mice ([12]; 5 mg/kg): 0/10
T/C ([12]; 5 mg/kg): 177%
Survivors on d60/total no. of mice ([12]; 10 mg/kg): 0/10
T/C ([12]; 10 mg/kg): 190%
Survivors on d60/total no. of mice ([12]; 20 mg/kg): 3/10
T/C ([12]; 20 mg/kg): 250%
Survivors on d60/total no. of mice ([12]; 30 mg/kg): 1/10
T/C ([12]; 30 mg/kg): 204%
Survivors on d60/total no. of mice ([12]; 40 mg/kg): 2/10
T/C ([12]; 40 mg/kg): 219%
Survivors on d60/total no. of mice ([12]; 50 mg/kg): 3/10
T/C ([12]; 50 mg/kg): 222%
Survivors on d60/total no. of mice ([12]; 60 mg/kg): 3/10
T/C ([12]; 60 mg/kg): 248%

COc1ccc2[nH]c3c(C)c4ccnc(C(=O)NCCCN(C)C)c4cc3c2c1 [Example 5, 1-(N,N-Dimethylaminopropylaminocarbonyl) -5-methyl-9-methoxy-6H-pyrido[4,3-b]carbazole]
IC50 [1]: 1500 nM

Cc1c2ccnc(C(=O)NCCN(C)C)c2cc2c3cc(O)ccc3n(C)c12 [Example 1, 1-(N,N-Dimethylaminoethylaminocarbonyl)-5,6-dimethyl-9-hydroxy-6H-pyrido[4,3-b]carbazole]
IC50 [2]: 4 nM
Survivors on d90 ([13]; 20 mg/kg): 6/10
median T/C (survival) ([13]; 20 mg/kg): > 300%
median T/C (volume) d20 ([13]; 20 mg/kg): 1%
curative for % of the animals ([13]; 40 mg/kg): 100%
Survivors on d90 ([13]; 40 mg/kg): 10/10
median T/C (survival) ([13]; 40 mg/kg): > 300%
median T/C (volume) d20 ([13]; 40 mg/kg): 0%
Survivors on d90 ([13]; 60 mg/kg): 6/10
median T/C (survival) ([13]; 60 mg/kg): > 300%
median T/C (volume) d20 ([13]; 60 mg/kg): 0%
activity against this very resistant model (in words) ([13]; adriamycin at the maximum tolerated dose): very active
times more cytotoxic than adriamycin [1]: approximately 9 times
times more cytotoxic than elliptinium acetate [1]: ~46 times
IC50 [1]: 2.6 nM
IC50 [3]: 25 nM
IC50 [4]: 120 nM
IC50 [5]: 5 nM
IC50 [6]: 49 nM
IC50 [7]: 12 nM
resistance factor [8]: 0,5
sensitivity of resistant line S1/tMDR relative to corresponding sensitive line [8]: more sensitive
median T/C (tumour volume) ([9]; 20 mg/kg, i.v.): 41%
median T/C (tumour volume) ([9]; 40 mg/kg, i.v.): 16%
median T/C (tumour volume) ([9]; 60 mg/kg, i.v.): 0%
resistance factor [10]: 0,8
sensitivity of resistant line P388/VCR-20 relative to corresponding sensitive line [10]: more sensitive
resistance factor [11]: 10
Survivors on d60/total no. of mice ([12]; 5 mg/kg): 1/10
T/C ([12]; 5 mg/kg): 163%
Survivors on d60/total no. of mice ([12]; 10 mg/kg): 1/10
T/C ([12]; 10 mg/kg): 183%
Survivors on d60/total no. of mice ([12]; 20 mg/kg): 2/10
T/C ([12]; 20 mg/kg): 220%
Survivors on d60/total no. of mice ([12]; 30 mg/kg): 3/10
T/C ([12]; 30 mg/kg): 200%
Survivors on d60/total no. of mice ([12]; 60 mg/kg): 3/10
T/C ([12]; 60 mg/kg): 257%
long-term survivors over all doses employed [12]: all the doses employed giving long-term survivors
cures, treated mice ([12]; single administration of 30 mg/kg): 7 out of 10
Survivors on d90 ([14]; 5 mg/kg): 0/10
median T/C (survival) ([14]; 5 mg/kg): 168%
Survivors on d90 ([14]; 10 mg/kg): 4/10
median T/C (survival) ([14]; 10 mg/kg): 301%
activity against that tumour (in words) ([14]; 20 mg/kg): very active
Survivors on d90 ([14]; 20 mg/kg): 6/10
median T/C (survival) ([14]; 20 mg/kg): > 352%

COc1ccc2[nH]c3c(C)c4ccnc(C(=O)NCCN(C)C)c4cc3c2c1 [Example 8, 1-(N,N-Dimethylaminoethylaminocarbonyl)-5-methyl-9-methoxy-6H-pyrido[4,3-b]carbazole]
IC50 [1]: 487 nM

Cc1c2ccnc(C(=O)NCCCCN)c2cc2c3cc(O)ccc3n(C)c12 [Example 12, 1-[(4-Aminobutyl)aminocarbonyl]-5,6-dimethyl-9-hydroxy-6H-pyrido[4,3-b]carbazole]
IC50 [1]: 450 nM

O=c1[nH]cc(F)c(=O)[nH]1 [Example 5-Fu, 5-fluorouracyle, reference compound]
median T/C (tumour volume) ([9]; 80 mg/kg, i.v.): 0%

Cc1c2ccnc(C(=O)NCCCN3CCOCC3)c2cc2c3cc(O)ccc3n(C)c12 [Example 14, 1-[N-(3-Morpholinopropyl)aminocarbonyl]-5,6-dimethyl-9-hydroxy-6H-pyrido[4,3-b]carbazole]
IC50 [1]: 10.4 nM

COc1ccc2c(c1)c1cc3c(C(=O)NCCN(C)C)nccc3c(C)c1n2C [Example 3, 1-(N,N-Dimethylaminoethylaminocarbonyl)-5,6-dimethyl-9-methoxy-6H-pyrido[4,3-b]carbazole]
IC50 [1]: 574 nM

Cc1c2ccnc(C(=O)NCCNCCO)c2cc2c3cc(O)ccc3n(C)c12 [Example 11, 1-{2-[(2-Hydroxyethyl)amino]ethylaminocarbonyl}-5,6-dimethyl-9-hydroxy-6H-pyrido [4,3-b]carbazole]
IC50 [1]: 29.7 nM

Cc1c2ccnc(C(=O)NCCCN(C)C)c2cc2c1[nH]c1ccc(O)cc12 [Example 7, 1-(N,N-Dimethylaminopropylaminocarbonyl)-5-methyl-9-hydroxy-6H-pyrido[4,3-b]carbazole]
IC50 [1]: 41 nM

COc1ccc2[nH]c3c(C)c4ccnc(C(=O)NCCN5CCCC5)c4cc3c2c1 [Example 9, 1-[2-(Pyrrolidin-1-yl)ethylaminocarbonyl]-5-methyl-9-methoxy-6H-pyrido[4,3-b]carbazole]
IC50 [1]: 1500 nM

Cc1c2ccnc(C(=O)NCCN(C)C)c2cc2c1[nH]c1ccc(O)cc12 [Example 6, 1-(N,N-Dimethylaminoethylaminocarbonyl)-5-methyl-9-hydroxy-6H-pyrido[4,3-b]carbazole]
IC50 [2]: 10 nM
times more cytotoxic than adriamycin [1]: approximately 9 times
times more cytotoxic than elliptinium acetate [1]: ~46 times
IC50 [1]: 3.1 nM
IC50 [3]: 29 nM
IC50 [4]: 737 nM
IC50 [5]: 19 nM
IC50 [6]: 42 nM
IC50 [7]: 20 nM
resistance factor [8]: 0,7
sensitivity of resistant line S1/tMDR relative to corresponding sensitive line [8]: more sensitive
median T/C (tumour volume) ([9]; 10 mg/kg, i.v.): 35%
median T/C (tumour volume) ([9]; 20 mg/kg, i.v.): 22%
median T/C (tumour volume) ([9]; 30 mg/kg, i.v.): 0%
resistance factor [10]: 0,5
sensitivity of resistant line P388/VCR-20 relative to corresponding sensitive line [10]: more sensitive
resistance factor [11]: 37
Survivors on d60/total no. of mice ([12]; 5 mg/kg): 4/10
T/C ([12]; 5 mg/kg): 280%
Survivors on d60/total no. of mice ([12]; 10 mg/kg): 3/10
T/C ([12]; 10 mg/kg): 233%
Survivors on d60/total no. of mice ([12]; 20 mg/kg): 5/10
T/C ([12]; 20 mg/kg): > 600%
Survivors on d60/total no. of mice ([12]; 30 mg/kg): 7/10
T/C ([12]; 30 mg/kg): > 600%
long-term survivors over all doses employed [12]: all the doses employed giving long-term survivors

COc1ccc2c(c1)c1cc3c(C(=O)NCCCN(C)C)nccc3c(C)c1n2C [Example 4, 1-(N,N-Dimethylaminopropylaminocarbonyl)-5,6-dimethyl-9-methoxy-6H-pyrido[4,3-b]carbazole]
IC50 [1]: 875 nM
